In data set [1] the test system is LNCaP. The data set can be described thus: Cell viability. It counts as cell-based, human. The settings on record: read-out: IC50 inhibition of cell viability LNCaP; 1 nM R1881, 6 days; mean ± SD.
Data set [2] concerns LAPC‐4 prostate cancer xenograft. The data set can be described thus: LAPC-4 xenograft in vivo efficacy. Also noted: species or system mice. The settings on record: for ΔT/ΔC tumor volume: Day 56.
Data set [3] has as its system KuCaP‐1 prostate cancer xenograft. The data set can be described thus: KuCaP-1 patient-derived xenograft in vivo efficacy. Also noted: species or system mice. The settings on record: for ΔT/ΔC tumor volume: Day 68; for Maximal body weight loss: vehicle group 10%. Background: In xenograft studies the graft and the host belong to different species.

Regarding `C[C@@H](Cn1ccc(-c2ccc(C#N)c(Cl)c2)n1)NC(=O)c1cc([C@@H](C)O)[nH]n1` [(S,R)‐darolutamide], in data set [1], the IC50 (usually the concentration that inhibits the measured activity by half) turned out to be 4.71 µM.
Same read-out and setting: the figure for `C[C@H](O)c1cc(C(=O)N[C@@H](C)Cn2ccc(-c3ccc(C#N)c(Cl)c3)n2)n[nH]1` [(S,S)‐darolutamide] is 5.23 µM; for `CC(O)(CS(=O)(=O)c1ccc(F)cc1)C(=O)Nc1ccc(C#N)c(C(F)(F)F)c1` (centres unmarked) [Bicalutamide, reference compound] it is 3.47 µM.
Regarding `CC(O)c1cc(C(=O)N[C@@H](C)Cn2ccc(-c3ccc(C#N)c(Cl)c3)n2)[nH]n1` (some centres unmarked) [Darolutamide], in data set [1], the IC50 was 5.26 µM. The ΔT/ΔC tumor volume stood at 25% in data set [2] (LAPC‐4, 100 mg/kg bi‐daily oral); 23% in data set [2] (LAPC‐4, 200 mg/kg once daily oral); 45% in data set [3] (KuCaP‐1, 40 mg/kg bi‐daily oral); 26% in data set [3] (KuCaP‐1, 100 mg/kg bi‐daily oral). The “Reduction of FKBP5 expression in tumors” value in data set [2] (LAPC‐4 tumors, highest treatment doses, 4 hr after final dosing) is reported as 50%. In addition, the “Maximal body weight loss” value in data set [3] (KuCaP‐1, 40 mg/kg bi‐daily) was 8%; in data set [3] (KuCaP‐1, 100 mg/kg bi‐daily), 6%.
As to `CNC(=O)c1ccc(N2C(=S)N(c3ccc(C#N)c(C(F)(F)F)c3)C(=O)C2(C)C)cc1F` [Enzalutamide, reference compound], the ΔT/ΔC tumor volume in data set [3] (KuCaP‐1, 30 mg/kg daily) was 70%; in data set [3] (KuCaP‐1, 100 mg/kg daily) it was 99%.
For `CC(=O)c1cc(C(=O)N[C@@H](C)Cn2ccc(-c3ccc(C#N)c(Cl)c3)n2)[nH]n1` [Keto‐darolutamide], the IC50 in data set [1] was 3.21 µM.

The record behind these values is publication PMC6766977 (International Journal of Cancer, 2019).
